Test results from the NIST ThermoML archive (doi:10.1021/acs.jced.5b00259).

Experiment: xn = mol fraction of the nth substance listed
Settings: 100 kPa, Liquid

CCOS(=O)(=O)[O-].CC[NH+]=C(N(C)C)N(C)C [2-ethyl-1,1,3,3-tetramethylguanidinium ethyl sulfate] + CCCO
Settings	mass density [kg/m3]	viscosity [mPa·s]
293.15 K, x1 = 0.0997	898.6	4.426
293.15 K, x1 = 0.2003	964.92	8.127
293.15 K, x1 = 0.3066	1016.48	16.78
293.15 K, x1 = 0.3996	1051.52	27.09
293.15 K, x1 = 0.5016	1082.4	48.51
293.15 K, x1 = 0.5989	1106.32	82.64
293.15 K, x1 = 0.6984	1126.59	134.4
293.15 K, x1 = 0.7999	1144.02	243.1
293.15 K, x1 = 0.8981	1158.38	405.5
293.15 K, x1 = 1	1170.76	673.4
298.15 K, x1 = 0.0997	894.7	3.9
298.15 K, x1 = 0.2003	961.16	7.044
298.15 K, x1 = 0.3066	1012.78	13.97
298.15 K, x1 = 0.3996	1047.86	22.36
298.15 K, x1 = 0.5016	1078.78	38.84
298.15 K, x1 = 0.5989	1102.73	63.88
298.15 K, x1 = 0.6984	1123.01	100.3
298.15 K, x1 = 0.7999	1140.47	174.3
298.15 K, x1 = 0.8981	1154.86	278.2
298.15 K, x1 = 1	1167.24	441.5
303.15 K, x1 = 0.0997	890.9	3.455
303.15 K, x1 = 0.2003	957.41	6.152
303.15 K, x1 = 0.3066	1009.1	12.3
303.15 K, x1 = 0.3996	1044.26	18.74
303.15 K, x1 = 0.5016	1075.17	31.58
303.15 K, x1 = 0.5989	1099.15	50.4
303.15 K, x1 = 0.6984	1119.44	76.66
303.15 K, x1 = 0.7999	1136.93	128.5
303.15 K, x1 = 0.8981	1151.36	197.5
303.15 K, x1 = 1	1163.76	302.5
308.15 K, x1 = 0.0997	887.03	3.077
308.15 K, x1 = 0.2003	953.65	5.412
308.15 K, x1 = 0.3066	1005.42	10.72
308.15 K, x1 = 0.3996	1040.62	15.88
308.15 K, x1 = 0.5016	1071.58	26.07
308.15 K, x1 = 0.5989	1095.58	40.53
308.15 K, x1 = 0.6984	1115.89	59.78
308.15 K, x1 = 0.7999	1133.41	97.5
308.15 K, x1 = 0.8981	1147.85	145.3
308.15 K, x1 = 1	1160.28	214.6
313.15 K, x1 = 0.0997	883.16	2.751
313.15 K, x1 = 0.2003	949.88	4.79
313.15 K, x1 = 0.3066	1001.73	9.145
313.15 K, x1 = 0.3996	1036.98	13.59
313.15 K, x1 = 0.5016	1068	21.82
313.15 K, x1 = 0.5989	1092.03	33.1
313.15 K, x1 = 0.6984	1112.37	47.59
313.15 K, x1 = 0.7999	1129.9	75.47
313.15 K, x1 = 0.8981	1144.35	110
313.15 K, x1 = 1	1156.8	157.2
318.15 K, x1 = 0.0997	879.26	2.471
318.15 K, x1 = 0.2003	946.11	4.266
318.15 K, x1 = 0.3066	998.04	7.69
318.15 K, x1 = 0.3996	1033.37	11.73
318.15 K, x1 = 0.5016	1064.43	18.48
318.15 K, x1 = 0.5989	1088.5	27.42
318.15 K, x1 = 0.6984	1108.86	38.53
318.15 K, x1 = 0.7999	1126.4	59.7
318.15 K, x1 = 0.8981	1140.87	84.19
318.15 K, x1 = 1	1153.33	118.3
323.15 K, x1 = 0.0997	875.35	2.228
323.15 K, x1 = 0.2003	942.33	3.819
323.15 K, x1 = 0.3066	994.35	6.777
323.15 K, x1 = 0.3996	1029.73	10.2
323.15 K, x1 = 0.5016	1060.87	15.79
323.15 K, x1 = 0.5989	1084.97	23.01
323.15 K, x1 = 0.6984	1105.36	31.66
323.15 K, x1 = 0.7999	1122.93	47.99
323.15 K, x1 = 0.8981	1137.4	66.48
323.15 K, x1 = 1	1149.87	91.22
